Measured values as given in PubChem BioAssay AID248 (DTP/NCI, 2004).
Where “and” joins values, the source holds several entries; their conditions need not be identical. Equal entries are not always repeated. Inconclusive results and toxic doses are left out. No stated cut-off is given here; in the data, active means T/C of 150% or more; inactive means T/C below 125%.

Test system: L1210 leukemia ip in BDF1 mice, survival T/C
Assay: NCI In Vivo Anticancer Drug Screen. Data for tumor model L1210 Leukemia (intraperitoneal) in B6D2F1 (BDF1) mice
Details: endpoint: mean survival time, higher = longer survival
Outline: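 Transplanted-tumor mice were given test agent; controls received vehicle only. Survival readings from the two groups were divided (treated over control).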

[1] = dose: 100.0 mg/kg/injection, schedule: Q01DX009 (ip), vehicle: Klucel (hydroxypropylcellulose) (HPC)
[2] = dose: 100.0 mg/kg/injection, schedule: Q04DX003 (ip), vehicle: Klucel (hydroxypropylcellulose) (HPC)
[3] = dose: 200.0 mg/kg/injection, schedule: Q01DX009 (ip), vehicle: Klucel (hydroxypropylcellulose) (HPC)
[4] = dose: 200.0 mg/kg/injection, schedule: Q04DX003 (ip), vehicle: Klucel (hydroxypropylcellulose) (HPC)
[5] = dose: 400.0 mg/kg/injection, schedule: Q04DX003 (ip), vehicle: Klucel (hydroxypropylcellulose) (HPC)
[6] = dose: 100.0 mg/kg/injection, schedule: Q01DX001 (ip), vehicle: saline
[7] = dose: 200.0 mg/kg/injection, schedule: Q01DX001 (ip), vehicle: saline
[8] = dose: 400.0 mg/kg/injection, schedule: Q01DX001 (ip), vehicle: saline
[9] = dose: 75.0 mg/kg/injection, schedule: Q01DX001 (ip), vehicle: saline
[10] = dose: 20.0 mg/kg/injection, schedule: Q01DX001 (ip), vehicle: saline
[11] = dose: 40.0 mg/kg/injection, schedule: Q01DX001 (ip), vehicle: saline
[12] = dose: 100.0 mg/kg/injection, schedule: Q04DX003 (ip), vehicle: saline with Tween-80
[13] = dose: 200.0 mg/kg/injection, schedule: Q04DX003 (ip), vehicle: saline with Tween-80
[14] = dose: 400.0 mg/kg/injection, schedule: Q04DX003 (ip), vehicle: saline with Tween-80
[15] = dose: 50.0 mg/kg/injection, schedule: Q01DX009 (ip), vehicle: saline with Tween-80
[16] = dose: 100.0 mg/kg/injection, schedule: Q01DX009 (ip), vehicle: saline with Tween-80
[17] = dose: 200.0 mg/kg/injection, schedule: Q01DX009 (ip), vehicle: saline with Tween-80
[18] = dose: 400.0 mg/kg/injection, schedule: Q01DX009 (ip), vehicle: Klucel (hydroxypropylcellulose) (HPC)

Measured: T/C

C[C@]12CC[C@H](O)CC1=CC[C@@H]1[C@@H]2CC[C@]2(C)c3nc4ccccc4cc3C[C@@H]12
inactive: dose: 15.6 mg/kg/injection, schedule: Q01DX Z (sc), vehicle: steriod suspending solution 94 % of control | dose: 31.3 mg/kg/injection, schedule: Q01DX Z (sc), vehicle: steriod suspending solution 93 % of control | dose: 62.5 mg/kg/injection, schedule: Q01DX Z (sc), vehicle: steriod suspending solution 94 % of control | dose: 100.0 mg/kg/injection, schedule: Q01DX009 (sc), vehicle: steriod suspending solution 94 % of control | dose: 100.0 mg/kg/injection, schedule: Q04DX003 (ip), vehicle: steriod suspending solution 98 % of control | dose: 125.0 mg/kg/injection, schedule: Q01DX Z (sc), vehicle: steriod suspending solution 96 % of control | dose: 200.0 mg/kg/injection, schedule: Q01DX009 (sc), vehicle: steriod suspending solution 92 % of control | dose: 200.0 mg/kg/injection, schedule: Q04DX003 (ip), vehicle: steriod suspending solution 107 % of control | dose: 250.0 mg/kg/injection, schedule: Q01DX Z (sc), vehicle: steriod suspending solution 104 % of control | dose: 400.0 mg/kg/injection, schedule: Q01DX009 (sc), vehicle: steriod suspending solution 89 % of control | dose: 400.0 mg/kg/injection, schedule: Q04DX003 (ip), vehicle: steriod suspending solution 106 % of control | dose: 500.0 mg/kg/injection, schedule: Q01DX Z (sc), vehicle: steriod suspending solution 94 % of control

Cc1ccc(NC(=O)Sc2ccc(Cl)cc2)c([N+](=O)[O-])c1
inactive: dose: 50.0 mg/kg/injection, schedule: Q01DX009 (ip), vehicle: Klucel (hydroxypropylcellulose) (HPC) 109 % of control | [1] 98 % of control | [2] 102 % of control | [3] 106 % of control | [4] 104 % of control | [5] 109 % of control

COC(=O)C1=CCCCC(N2CCOCC2)=C1C(=O)OC
inactive: [6] 97 % of control | [7] 101 % of control | [8] 103 % of control

CCN(CC)c1ccc(N=C2C=C(C(=O)Nc3ccc(C(=O)O)cc3)C(=O)c3ccccc32)c(C)c1
inactive: [6] 102 % of control | [7] 100 % of control | [8] 102 % of control

Nc1cc(S(=O)(=O)F)cc(Cl)c1O
inactive: [1] 105 % of control | [3] 103 % of control

CCc1ccc(C(=O)O)oc1=O
inactive: [9] 89 % of control | dose: 150.0 mg/kg/injection, schedule: Q01DX001 (ip), vehicle: saline 92 % of control

Nc1ncnc2c1c(I)cn2C1OC(CO)C(O)C1O (configuration not stated)
inactive: dose: 5.0 mg/kg/injection, schedule: Q01DX001 (ip), vehicle: saline 102 % of control | dose: 10.0 mg/kg/injection, schedule: Q01DX001 (ip), vehicle: saline 101 % of control | [10] 103 % of control | [11] 105 % of control

CCCCOB(OCCCC)C(C)C(C#N)C#N (configuration not stated)
inactive: dose: 100.0 mg/kg/injection, schedule: Q01DX009 (ip), vehicle: saline sonified 94 % of control | [12] 110 % of control | dose: 200.0 mg/kg/injection, schedule: Q01DX009 (ip), vehicle: saline sonified 92 % of control | [13] 98 % of control | dose: 400.0 mg/kg/injection, schedule: Q01DX009 (ip), vehicle: saline sonified 89 % of control | [14] 93 % of control

CCNC(=O)C1C2CCC(C2)C1C(=O)NCC (configuration not stated)
inactive: dose: 100.0 mg/kg/injection, schedule: Q04DX003 (ip), vehicle: saline 104 % of control | dose: 200.0 mg/kg/injection, schedule: Q04DX003 (ip), vehicle: saline 87 % of control | dose: 400.0 mg/kg/injection, schedule: Q04DX003 (ip), vehicle: saline 96 % of control

CCCC(C)C1(CC)C(=O)NC(=O)NC1=O (configuration not stated)
inactive: [10] 97 % of control | dose: 20.0 mg/kg/injection, schedule: Q04DX003 (ip), vehicle: saline 93 % of control | [11] 103 % of control | dose: 40.0 mg/kg/injection, schedule: Q04DX003 (ip), vehicle: saline 98 % of control | [9] 107 % of control | dose: 80.0 mg/kg/injection, schedule: Q01DX001 (ip), vehicle: saline 108 % of control | dose: 80.0 mg/kg/injection, schedule: Q04DX003 (ip), vehicle: saline 97 % of control | dose: 160.0 mg/kg/injection, schedule: Q01DX001 (ip), vehicle: saline 108 % of control

Cl[C](Cl)([Pb]([c]1ccccc1)([c]1ccccc1)[c]1ccccc1)[Pb]([c]1ccccc1)([c]1ccccc1)[c]1ccccc1
inactive: dose: 100.0 mg/kg/injection, schedule: Q04DX002 (ip), vehicle: saline with Tween-80 98 % of control | dose: 200.0 mg/kg/injection, schedule: Q04DX002 (ip), vehicle: saline with Tween-80 94 % of control | dose: 400.0 mg/kg/injection, schedule: Q04DX002 (ip), vehicle: saline with Tween-80 90 % of control

CC(C)=NNS(=O)(=O)c1ccccc1
inactive: [15] 106 % of control | [16] 108 % of control | [17] 101 % of control

COc1cccc(/C=C/C(=O)C2CCCCC2)c1
inactive: [15] 101 % of control | [16] 97 % of control | [17] 101 % of control

O=c1cc(-c2ccccc2)nc2ccccn12
inactive: dose: 100.0 mg/kg/injection, schedule: Q01DX001 (ip), vehicle: saline with Tween-80 101 % of control | dose: 200.0 mg/kg/injection, schedule: Q01DX001 (ip), vehicle: saline with Tween-80 101 % of control | dose: 400.0 mg/kg/injection, schedule: Q01DX001 (ip), vehicle: saline with Tween-80 95 % of control

CO/N=C1/C=C(C)C(=O)C(C)=C1C
inactive: dose: 50.0 mg/kg/injection, schedule: Q01DX001 (ip), vehicle: saline 94 % of control | [6] 97 % of control | [1] 102 % of control | [2] 97 % of control | [7] 105 % of control | [3] 98 % of control | [4] 92 % of control | [8] 94 % of control | [18] 95 % of control | [5] 101 % of control

O=C(OCCOC(=O)c1cccc([N+](=O)[O-])c1)c1cccc([N+](=O)[O-])c1
inactive: dose: 100.0 mg/kg/injection, schedule: Q01DX001 (ip), vehicle: other 95 % of control | dose: 200.0 mg/kg/injection, schedule: Q01DX001 (ip), vehicle: other 96 % of control | dose: 400.0 mg/kg/injection, schedule: Q01DX001 (ip), vehicle: other 96 % of control

CC(=O)OC1CC2(O)C(CCC3(C)C(c4ccc(=O)oc4)CCC32O)C2(C)C1=CC(O)C1OC12 (configuration not stated)
inactive: dose: 0.06 mg/kg/injection, schedule: Q01DX001 (sc), vehicle: steriod suspending solution 105 % of control | dose: 0.13 mg/kg/injection, schedule: Q01DX001 (sc), vehicle: steriod suspending solution 103 % of control | dose: 0.25 mg/kg/injection, schedule: Q01DX001 (sc), vehicle: steriod suspending solution 105 % of control | dose: 0.5 mg/kg/injection, schedule: Q01DX001 (sc), vehicle: steriod suspending solution 100 % of control and 102 % of control | dose: 1.0 mg/kg/injection, schedule: Q01DX001 (sc), vehicle: steriod suspending solution 96 % of control | dose: 2.0 mg/kg/injection, schedule: Q01DX001 (sc), vehicle: steriod suspending solution 104 % of control

O=C(Nc1cccc(C(F)(F)F)c1)N1CCN(c2ccccc2)CC1
inactive: [1] 103 % of control | [3] 96 % of control | [18] 106 % of control

CCC(C(=O)NC(=O)NOC)c1ccccc1 (configuration not stated)
inactive: dose: 100.0 mg/kg/injection, schedule: Q01DX Z (ip), vehicle: methylcellulose (MC) 95 % of control | dose: 200.0 mg/kg/injection, schedule: Q01DX Z (ip), vehicle: methylcellulose (MC) 114 % of control | dose: 400.0 mg/kg/injection, schedule: Q01DX Z (ip), vehicle: methylcellulose (MC) 116 % of control

Cc1cc(N)ccc1S(=O)(=O)F
inactive: [12] 103 % of control | [13] 103 % of control | [14] 100 % of control

Cc1nc2ccccc2[nH]1
inactive: dose: 25.0 mg/kg/injection, schedule: Q04DX002 (ip), vehicle: Klucel (hydroxypropylcellulose) (HPC) 109 % of control | dose: 50.0 mg/kg/injection, schedule: Q04DX002 (ip), vehicle: Klucel (hydroxypropylcellulose) (HPC) 105 % of control | dose: 100.0 mg/kg/injection, schedule: Q04DX002 (ip), vehicle: Klucel (hydroxypropylcellulose) (HPC) 105 % of control
